Source: paper PMC7679302 (Environmental Science and Pollution Research International, 2020)
Marks after values point to notes of the source that are not given here.

Columns and labels:
mayfly Hexagenia spp. [1] = conditions: Hexagenia spp. (mixture of H. rigida and H. limbata), in vivo, 42 days, pH 8.3
Protocol: (§3) Nominal concentrations were 10, 30, 100, 300, and 1000 mg/kg for juvenile freshwater mussels and 3, 10, 30, 100, and 300 mg/kg for amphipods and mayflies, and were based on the results of range-finding tests (detailed in Supplementary Materials). […] For each PPCP, the concentration of solvent used was consistent across treatments.
(§4) The sediments were mixed for 24 h, left open in a fume hood for 3–5 days for the acetone to evaporate, and then stored at 4 °C until use. […] All beakers were aerated for 1 week under testing conditions prior to the addition of organisms, and throughout the tests. Duration of toxicity tests varied depending on the species and endpoint of interest (see below). Water quality parameters were collected for each test (Table S1).
(§5) Briefly, eggs of Hexagenia spp. […] Prior to testing, eggs were hatched and nymphs were grown in aerated 20-L aquaria containing culture sediment (depth: 2.5 cm) and culture water (depth: 10 cm) for 6 to 7 weeks.
(§6) Ten mayflies (5–8 mg wet weight) were added to each beaker (three replicates for each control and PPCP concentration). Two tests were conducted for each compound. […] At the end of the test, mayflies were removed and surviving animals from each of the three replicates were counted and weighed.

[2] = Acute 48 h aqueous toxicity test with glochidia (viability); format: in vivo, Lampsilis siliquoidea; conditions: Lampsilis siliquoidea, in vivo, other: aqueous (water-only) exposure, 48-h aqueous exposure, n = 4, read-out: Viability (mean, % (standard deviation))
From the text: (§1) Aqueous acute toxicity tests were based on the American Society for Testing and Materials (ASTM [2013]) protocols for conducting toxicity tests with early life stages of freshwater mussels. Gravid female L. siliquoidea were collected from an established reference site in the Maitland River (ON) and kept in ECCC’s Aquatic Life Research Facility (Canada Centre for Inland Waters, Burlington, ON). Glochidia were removed from gravid females and their viability (i.e., ability to close their valves) was assessed. Glochidia from a minimum of three gravid mussels whose glochidia exceeded 90% viability were pooled and exposed to a geometric series of nominal concentrations (0, 0.0025, 0.025, 0.25, 2.5, 25 mg/L) of either FIN or MGA plus a solvent control. Tests were conducted in 250-mL glass beakers (unaerated and unfed) with culture water. After 24 and 48 h of exposure, glochidia viability was assessed in a minimum of 100 glochidia per replicate (four replicates). Water samples were collected at the beginning and end of the tests, and frozen pending chemical analysis.

[3] = test system: Lampsilis siliquoidea glochidia; experiment: as above; format: in vivo; conditions: for Viability (mean, % (standard deviation)): 48-h aqueous exposure, n = 4
From the text: as §1

[4] = test system: African clawed frog (Xenopus laevis) larvae; design: method as in Finch et al. [2013]; conditions: chronic exposure to 100 ng/L MGA; ref Finch et al. [2013]; cited from earlier work
amphipods H. azteca = experiment: 21 d range-finding sediment test, amphipods; format: in vivo, Hyalella azteca; conditions: n = 3
Protocol: (§2) Range-finding tests of 21 d were completed with juvenile mussels, amphipods and mayflies to assist with the selection of the concentrations to be used in final testing. Nominal concentrations in range-finding tests were 0.1, 1, 10, 100, and 1000 mg/kg, based on dry weight of sediment. Range-finding test conditions were identical to those described in the manuscript for chronic sediment tests with the exception of test duration.
Amphipods were fed 2.5 mg Tetra-min twice per week during weeks one and two, and three times during week three. At the end of the test, amphipods were removed and the survivors were counted and weighed.

[5] = natural and simulated sunlight; ref Qu et al. [2012]; cited from earlier work
mayflies Hexagenia spp. = experiment: 21 d range-finding sediment test, mayflies; format: in vivo; conditions: n = 3
Protocol: as §2
At the end of the test, survival and wet weight of mayflies in each replicate were recorded.

[6] = test system: juvenile mussels L. siliquoidea; experiment: 21 d range-finding sediment test, juvenile mussels; format: in vivo
Protocol: as §2
After 21 d, mussels were recovered and transferred to Petri dishes filled with clean sand and housed in large trays of aerated culture water to assess burial ability.

[7] = test system: goldfish (Carassius auratus); design: method as in Upjohn Company [1996]; conditions: 1 mg/L MGA for 21 days; ref Upjohn Company [1996]; cited from earlier work
mayfly Hexagenia spp. [8] = experiment: Chronic 42-day sediment test with mayflies (survival, growth); conditions: measured, n = 6
Protocol: as §3, §4, §5, §6

amphipod Hyalella azteca = experiment: Chronic 42-day sediment test with amphipods (survival, growth, reproduction, sex ratio)
Protocol: Dechlorinated municipal tap water was used for cultures and toxicity tests. Both cultures and toxicity tests were held at 25 °C with a photoperiod of 16 h light:8 h dark, and amphipods were fed finely ground Tetra-Min fish food flakes (Tetra GMBH, Melle, Germany). Juvenile amphipods were removed weekly from breeding containers and used in toxicity tests.
Two tests were conducted for each compound. Amphipods were fed ground Tetra-Min twice per week during weeks 1 and 2, three times during week 3, and 5 mg three times per week during weeks 4 to 6. Surviving adults were counted, weighed as a group, and examined under a dissecting microscope to identify males (enlarged second gnathopods) and females, and the number of juveniles was recorded.

D. magna [9] = conditions: ref Minguez et al. ([2014]); cited from earlier work
juvenile L. siliquoidea = test system: juvenile L. siliquoidea; design: method as in Gilroy et al. ([2017]); conditions: ref Gilroy et al. ([2017]); cited from earlier work
[10] = test system: glochidia of L. siliquoidea; design: method as in Gilroy et al. ([2017]); conditions: ref Gilroy et al. ([2017]); cited from earlier work
D. magna [11] = test system: D. magna; design: method as in Haeba et al. [2008]; conditions: ref Haeba et al. [2008], cited from earlier work
[12] = 0.1 mg/kg dry weight nominal, n = 3
[13] = 1 mg/kg dry weight nominal, n = 3
[14] = 10 mg/kg dry weight nominal, n = 3
[15] = 100 mg/kg dry weight nominal, n = 3
[16] = Hyalella azteca, in vivo, 42 days, pH 8.3

Question: Which “ChV, overlying water” value (mayfly Hexagenia spp. [1]) does the source give for `C=C1C[C@H]2[C@@H]3C=C(C)C4=CC(=O)CC[C@]4(C)[C@H]3CC[C@]2(C)[C@@]1(OC(C)=O)C(C)=O` [Melengestrol acetate] here?
Answer: 0.1 mg/L

Question: What about the “ChV, sediment” value (mayfly Hexagenia spp. [1]) of the same compound?
Answer: 21 mg/kg

Question: And the “LOEC, overlying water” value (mayfly Hexagenia spp. [1])?
Answer: 0.25 mg/L

Question: What about the “LOEC, sediment” value (mayfly Hexagenia spp. [1]) of the same compound?
Answer: 37 mg/kg

Question: And the “NOEC, overlying water” value (mayfly Hexagenia spp. [1])?
Answer: 0.04 mg/L

Question: And the “NOEC, sediment” value (mayfly Hexagenia spp. [1])?
Answer: 12 mg/kg

Question: What about the viability at 48 h, 0.005 mg/L ([2]; 0.005 mg/L mean measured) of the same compound?
Answer: 86%

Question: And the viability at 48 h, 0.05 mg/L ([2]; 0.05 mg/L mean measured)?
Answer: 82%

Question: What about the viability at 48 h, 0.3 mg/L ([2]; 0.3 mg/L mean measured) of the same compound?
Answer: 85%

Question: And the viability at 48 h, 1.9 mg/L ([2]; 1.9 mg/L mean measured)?
Answer: 82%

Question: And the viability at 48 h, 4 mg/L ([2]; 4 mg/L mean measured)?
Answer: 70%

Question: And the Decrease in viability ([3]; 4 mg/L MGA, water-only)?
Answer: 20%

Question: What about the “Viability (mean, % (standard deviation))” value ([3]; 0.05 mg/L mean measured) of the same compound?
Answer: 82 (2.1)^b %

Question: And the “Viability (mean, % (standard deviation))” value ([3]; 1.9 mg/L mean measured)?
Answer: 82 (3.3)^b %

Question: What about the NOEC ([3]; Lampsilis siliquoidea, in vivo, 48 h) of the same compound?
Answer: 1.9 mg/L^b

Question: And the “ChV (geometric mean of NOEC and LOEC)” value ([3]; viability, acute 48 h)?
Answer: 2.8 mg/L

Question: And the “Larval size (length and weight) vs controls” value [4]?
Answer: significantly smaller

Question: And the “Mortality or developmental effects” value [4]?
Answer: no mortality or developmental effects were observed

Question: And the “Growth, mean (SEM)” value (amphipods H. azteca; 0.1 mg/kg dry weight nominal)?
Answer: 1.0 (0.09) mg wet weight

Question: What about the “Survival (%), mean (SEM)” value (amphipods H. azteca; 0.1 mg/kg dry weight nominal) of the same compound?
Answer: 100 (3.8) %

Question: And the “Growth, mean (SEM)” value (amphipods H. azteca; 1 mg/kg dry weight nominal)?
Answer: 1.0 (0.07) mg wet weight

Question: What about the “Survival (%), mean (SEM)” value (amphipods H. azteca; 1 mg/kg dry weight nominal) of the same compound?
Answer: 100 (0.0) %

Question: What about the “Growth, mean (SEM)” value (amphipods H. azteca; 10 mg/kg dry weight nominal) of the same compound?
Answer: 1.1 (0.10) mg wet weight

Question: What about the “Survival (%), mean (SEM)” value (amphipods H. azteca; 10 mg/kg dry weight nominal) of the same compound?
Answer: 95 (2.2) %

Question: What about the “Growth, mean (SEM)” value (amphipods H. azteca; 100 mg/kg dry weight nominal) of the same compound?
Answer: 0.7 (0.15) mg wet weight

Question: What about the “Survival (%), mean (SEM)” value (amphipods H. azteca; 100 mg/kg dry weight nominal) of the same compound?
Answer: 95 (2.2) %

Question: What about the “Survival (%), mean (SEM)” value (amphipods H. azteca; 1000 mg/kg dry weight nominal) of the same compound?
Answer: 0^a (0.0) %

Question: And the Direct photolysis half-life [5]?
Answer: approximately 45 min

Question: And the “Growth, mean (SEM)” value (mayflies Hexagenia spp.; 0.1 mg/kg dry weight nominal)?
Answer: 33 (0.2) mg wet weight

Question: What about the “Survival (%), mean (SEM)” value (mayflies Hexagenia spp.; 0.1 mg/kg dry weight nominal) of the same compound?
Answer: 100 (0.0) %

Question: What about the “Growth, mean (SEM)” value (mayflies Hexagenia spp.; 1 mg/kg dry weight nominal) of the same compound?
Answer: 30 (0.9) mg wet weight

Question: And the “Survival (%), mean (SEM)” value (mayflies Hexagenia spp.; 1 mg/kg dry weight nominal)?
Answer: 97 (3.3) %

Question: What about the “Growth, mean (SEM)” value (mayflies Hexagenia spp.; 10 mg/kg dry weight nominal) of the same compound?
Answer: 31 (1.2) mg wet weight

Question: What about the “Survival (%), mean (SEM)” value (mayflies Hexagenia spp.; 10 mg/kg dry weight nominal) of the same compound?
Answer: 100 (0.0) %

Question: And the “Growth, mean (SEM)” value (mayflies Hexagenia spp.; 100 mg/kg dry weight nominal)?
Answer: 20^a (0.7) mg wet weight

Question: What about the “Survival (%), mean (SEM)” value (mayflies Hexagenia spp.; 100 mg/kg dry weight nominal) of the same compound?
Answer: 100 (0.0) %

Question: What about the “Growth, mean (SEM)” value (mayflies Hexagenia spp.; 1000 mg/kg dry weight nominal) of the same compound?
Answer: 7.4^a (0.24) mg wet weight

Question: And the “Survival (%), mean (SEM)” value (mayflies Hexagenia spp.; 1000 mg/kg dry weight nominal)?
Answer: 37^a (8.8) %

Question: What about the “Burial (%), mean (SEM)” value [6, 12] of the same compound?
Answer: 85 (4.8) %

Question: What about the “Survival (%), mean (SEM)” value [6, 12] of the same compound?
Answer: 93 (3.3) %

Question: And the “Burial (%), mean (SEM)” value [6, 13]?
Answer: 97 (7.0) %

Question: And the “Survival (%), mean (SEM)” value [6, 13]?
Answer: 97 (3.3) %

Question: What about the “Burial (%), mean (SEM)” value [6, 14] of the same compound?
Answer: 90(5.8) %

Question: What about the “Survival (%), mean (SEM)” value [6, 14] of the same compound?
Answer: 97 (3.3) %

Question: And the “Burial (%), mean (SEM)” value [6, 15]?
Answer: 90 (0.0) %

Question: What about the “Survival (%), mean (SEM)” value [6, 15] of the same compound?
Answer: 100 (0.0) %

Question: What about the “Burial (%), mean (SEM)” value ([6]; 1000 mg/kg dry weight nominal, n = 3) of the same compound?
Answer: 68 (5.8) %

Question: What about the “Survival (%), mean (SEM)” value ([6]; 1000 mg/kg dry weight nominal, n = 3, 1000 mg/kg) of the same compound?
Answer: 77 (8.8) %

Question: And the Toxicity [7]?
Answer: No toxicity was observed

Question: And the “Survival (percent of initial animals added), mean (SEM)” value (mayfly Hexagenia spp. [8]; melengestrol acetate 1 mg/kg dw sediment (0.002 mg/L water))?
Answer: 95 (2.2) %

Question: And the “Survival (percent of initial animals added), mean (SEM)” value (mayfly Hexagenia spp. [8]; melengestrol acetate 12 mg/kg dw sediment (0.04 mg/L water))?
Answer: 90 (2.6) %

Question: And the “Survival (percent of initial animals added), mean (SEM)” value (mayfly Hexagenia spp. [8]; melengestrol acetate 37 mg/kg dw sediment (0.25 mg/L water))?
Answer: 93 (2.1) %

Question: What about the “Survival (percent of initial animals added), mean (SEM)” value (mayfly Hexagenia spp. [8]; melengestrol acetate 76 mg/kg dw sediment (0.5 mg/L water)) of the same compound?
Answer: 92 (4.0) %

Question: What about the “ChV, sediment” value (amphipod Hyalella azteca; [16]) of the same compound?
Answer: 53 mg/kg

Question: And the “LOEC, overlying water” value (amphipod Hyalella azteca; [16])?
Answer: 0.5 mg/L

Question: And the “LOEC, sediment” value (amphipod Hyalella azteca; [16])?
Answer: 76 mg/kg

Question: What about the “NOEC, overlying water” value (amphipod Hyalella azteca; [16]) of the same compound?
Answer: 0.25 mg/L

Question: And the “Females (percent of surviving amphipods), mean (SEM)” value (amphipod Hyalella azteca; melengestrol acetate 76 mg/kg dw sediment (0.5 mg/L water), measured, 42-day, n = 10)?
Answer: 60 (4.5) %

Question: What about the “NOEC, sediment” value (amphipod Hyalella azteca; survival, growth, 42-day, dry weight sediment, measured) of the same compound?
Answer: 37 mg/kg

Question: Which “48-h EC50” value (D. magna [9]) does the source give for `CN(C)CCC=C1c2ccccc2CCc2ccccc21` [amitriptyline] here?
Answer: 4.8 µg/mL

Question: And the “14-day LC50” value (juvenile L. siliquoidea)?
Answer: 0.4 µg/mL

Question: And the “24-h LC50” value [10]?
Answer: 0.3 µg/mL

Question: Which “Effect on maturation and embryonic development” value (D. magna [11]; concentrations up to 1 mg/L) does the source give for `CC(C)C(=O)Nc1ccc([N+](=O)[O-])c(C(F)(F)F)c1` [flutamide] here?
Answer: delayed the maturation of female D. magna and inhibited the embryonic development of neonates

Question: And the “48-h EC50 for immobilization” value (D. magna [11])?
Answer: 2.7 µg/mL

Question: With `CN[C@H]1CC[C@@H](c2ccc(Cl)c(Cl)c2)c2ccccc21` [sertraline] as the compound, how does the “28-day LC50” value (juvenile L. siliquoidea) read?
Answer: 0.04 µg/mL

Question: And the “24-h LC50” value [10]?
Answer: 0.06 µg/mL
